Experimental data as given in PubChem BioAssay (NCI).
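Dose response: 5 concentrations. Exposure: 48 h. Format: 96-well plates. Endpoint: linear interpolation; highest concentration if not reached. TGI is the concentration that stops growth completely.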

Tests used:
Assay in all cases: growth of human tumour cells (NCI), 48 h
CAKI-1 renal = tested on: CAKI-1 renal
COLO 205 colon = tested on: COLO 205 colon
DLD-1 colon = tested on: DLD-1 colon
DMS 114 small cell lung = tested on: DMS 114 small cell lung
DMS 273 small cell lung = tested on: DMS 273 small cell lung
HL-60(TB) leukemia = tested on: HL-60(TB) leukemia
IGROV1 ovarian = tested on: IGROV1 ovarian
MOLT-4 leukemia = tested on: MOLT-4 leukemia
NCI-H522 lung = tested on: NCI-H522 lung
OVCAR-3 ovarian = tested on: OVCAR-3 ovarian
OVCAR-4 ovarian = tested on: OVCAR-4 ovarian
SF-295 CNS = tested on: SF-295 CNS
SK-MEL-2 melanoma = tested on: SK-MEL-2 melanoma
SN12C renal = tested on: SN12C renal
SNB-75 CNS = tested on: SNB-75 CNS
SNB-78 CNS = tested on: SNB-78 CNS
SW-620 colon = tested on: SW-620 colon
U251 CNS = tested on: U251 CNS
UACC-257 melanoma = tested on: UACC-257 melanoma
UACC-62 melanoma = tested on: UACC-62 melanoma

SMILES | TGI (CAKI-1 renal) | TGI (COLO 205 colon) | TGI (DLD-1 colon) | TGI (DMS 114 small cell lung) | TGI (DMS 273 small cell lung) | TGI (HL-60(TB) leukemia) | TGI (IGROV1 ovarian) | TGI (MOLT-4 leukemia) | TGI (NCI-H522 lung) | TGI (OVCAR-3 ovarian) | TGI (OVCAR-4 ovarian) | TGI (SF-295 CNS) | TGI (SK-MEL-2 melanoma) | TGI (SN12C renal) | TGI (SNB-75 CNS) | TGI (SNB-78 CNS) | TGI (SW-620 colon) | TGI (U251 CNS) | TGI (UACC-257 melanoma) | TGI (UACC-62 melanoma)
CC(C)=CCc1c(O)ccc2ccc(=O)oc12 | > 100 µM | > 100 µM | > 100 µM | 93.6 µM | > 100 µM | > 80.6 µM | > 100 µM | 84.2 µM | > 100 µM | > 100 µM | > 100 µM | > 100 µM | > 100 µM | > 100 µM | > 100 µM | > 100 µM | > 100 µM | > 100 µM | 84 µM | > 100 µM
O=C(CC(=O)c1ccccc1)CC(O)(c1ccccc1)c1ccccc1 | 13.4 µM | 24.6 µM | 26.6 µM | 5.73 µM | – | 6.54 µM | – | 42.8 µM | 13.6 µM | 17.3 µM | 17.9 µM | 17.1 µM | 22.2 µM | 19.3 µM | 27.5 µM | 81 µM | 18.1 µM | 14.9 µM | 29.7 µM | 14.9 µM
COc1cc(/C=C/C(=O)O)ccc1C(=O)OCc1ccccc1 | – | > 100 µM | > 100 µM | > 100 µM | > 100 µM | > 100 µM | > 100 µM | > 100 µM | > 100 µM | > 100 µM | > 100 µM | > 100 µM | > 100 µM | > 100 µM | > 100 µM | > 100 µM | > 100 µM | > 100 µM | > 100 µM | > 100 µM
COC(=O)CN(C)P(=O)(N1CC1)N1CC1 | > 100 µM | > 100 µM | > 100 µM | > 100 µM | > 100 µM | > 100 µM | > 100 µM | > 100 µM | > 100 µM | – | > 100 µM | > 100 µM | > 100 µM | > 100 µM | > 100 µM | > 100 µM | > 100 µM | > 100 µM | > 100 µM | > 100 µM
